Results from patent US7993917B2, “Method for obtaining a cellular product from a cell or a tissue using protein-free medium” (The United States of America as represented by the …, priority 1999, dated 2011).
Read-outs that look alike come from different tables or passages of the source.

Test system: P. falciparum isolates
Experiment: 48 hour parasite lactate dehydrogenase (48 hr pLDH) drug sensitivity assay after transport from the field on ice in BAM
Type: cell-based
Conditions: Plasmodium falciparum
Procedure: Malaria parasites fail to thrive after removal from the patient. They can be preserved either by cryopreservation in liquid nitrogen or storage at −70° C. These techniques used for long term storage are too labor-intensive and expensive for routine use. […] Transit time can vary between a few hours to less than a week. Because of the clinical demand for such a service, BAM was evaluated in the field as a transport medium for malaria parasites.

[1] = 24 h, isolate 1107, 1 day in transit, read-out: IC50
[2] = 24 h, isolate 1236, 1 day in transit, read-out: IC50
[3] = 24 h, isolate A116, 1 day in transit, read-out: IC50
[4] = 24 h, isolate A246, 1 day in transit, read-out: IC50
[5] = 24 h, isolate A296, 1 day in transit, read-out: IC50
[6] = 24 h, isolate B236, 1 day in transit, read-out: IC50
[7] = 24 h, isolate C67, 1 day in transit, read-out: IC50
[8] = 24 h, isolate C107, 1 day in transit, read-out: IC50
[9] = 24 h, isolate C166, 1 day in transit, read-out: IC50
[10] = 24 h, isolate D86, 1 day in transit, read-out: IC50
[11] = 24 h, isolate D107, 1 day in transit, read-out: IC50
[12] = 24 h, isolate D296, 1 day in transit, read-out: IC50
[13] = 24 h, isolate E107, 1 day in transit, read-out: IC50
[14] = 24 h, isolate F166, 1 day in transit, read-out: IC50
[15] = 24 h, isolate F296, 1 day in transit, read-out: IC50
[16] = 24 h, isolate G17, 1 day in transit, read-out: IC50
[17] = 24 h, isolate G236, 1 day in transit, read-out: IC50
[18] = 24 h, isolate H107, 1 day in transit, read-out: IC50
[19] = 24 h, isolate J107, 1 day in transit, read-out: IC50
[20] = 24 h, isolate K107, 1 day in transit, read-out: IC50
[21] = 24 h, isolate KilH, 1 day in transit, read-out: IC50
[22] = 24 h, isolate KilS, 1 day in transit, read-out: IC50
[23] = 24 h, isolate L107, 1 day in transit, read-out: IC50
[24] = 24 h, isolate L137, 1 day in transit, read-out: IC50
[25] = 48 h, isolate B116, 2 days in transit, read-out: IC50
[26] = 48 h, isolate B296, 2 days in transit, read-out: IC50
[27] = 48 h, isolate C108, 2 days in transit, read-out: IC50
[28] = 48 h, isolate G296, 2 days in transit, read-out: IC50
[29] = 48 h, isolate H236, 2 days in transit, read-out: IC50
[30] = 48 h, isolate R107, 2 days in transit, read-out: IC50

Structure (SMILES): CCN(CC)Cc1cc(Nc2ccnc3cc(Cl)ccc23)ccc1O [Amodiaquine, amodiaquine]
- IC50 [1]: 6.6 nM
- IC50 [2]: 26.8 nM
- IC50 (24 h, isolate A67, 1 day in transit, read-out: IC50): 37.6 nM
- IC50 (24 h, isolate A107, 1 day in transit, read-out: IC50): 91.8 nM
- IC50 [3]: 70.2 nM
- IC50 [4]: 17 nM
- IC50 [5]: 152 nM
- IC50 [6]: 28.8 nM
- IC50 [7]: 117 nM
- IC50 [8]: 179 nM
- IC50 [9]: 68 nM
- IC50 [10]: 29.8 nM
- IC50 [11]: 178 nM
- IC50 [12]: 180 nM
- IC50 [13]: 152 nM
- IC50 (24 h, isolate F107, 1 day in transit, read-out: IC50): 23.6 nM
- IC50 [14]: 91.6 nM
- IC50 [15]: 202 nM
- IC50 [16]: 40.8 nM
- IC50 [17]: 33.8 nM
- IC50 [18]: 100 nM
- IC50 [19]: 12.6 nM
- IC50 [20]: 35.4 nM
- IC50 [21]: 125 nM
- IC50 [22]: 128 nM
- IC50 [23]: 18.4 nM
- IC50 [24]: 150 nM
- IC50 (48 h, isolate B106, 2 days in transit, read-out: IC50): 99.2 nM
- IC50 [25]: 145 nM
- IC50 [26]: 53.4 nM
- IC50 [27]: 86.2 nM
- IC50 (48 h, isolate D166, 2 days in transit, read-out: IC50): 6.6 nM
- IC50 [28]: 179 nM
- IC50 [29]: 8.6 nM
- IC50 [30]: 79.8 nM

Structure (SMILES): CCN(CC)CCCC(C)Nc1ccnc2cc(Cl)ccc12 (stereo not shown) [Chloroquine, chloroquine]
- IC50 (24 h, isolate 1107, 1 day in transit): 160 nM
- IC50 (24 h, isolate 1236, 1 day in transit): 22.2 nM
- IC50 (24 h, isolate A67, 1 day in transit): 191 nM
- IC50 (24 h, isolate A107, 1 day in transit): 818 nM
- IC50 (24 h, isolate A116, 1 day in transit): 58.4 nM
- IC50 (24 h, isolate A246, 1 day in transit): 20 nM
- IC50 (24 h, isolate A296, 1 day in transit): 115 nM
- IC50 (24 h, isolate B236, 1 day in transit): 90.6 nM
- IC50 (24 h, isolate C67, 1 day in transit): 143 nM
- IC50 (24 h, isolate C107, 1 day in transit): 554 nM
- IC50 (24 h, isolate C166, 1 day in transit): 30.8 nM
- IC50 (24 h, isolate D86, 1 day in transit): 33.2 nM
- IC50 (24 h, isolate D107, 1 day in transit): 502 nM
- IC50 (24 h, isolate E67, 1 day in transit): 50 nM
- IC50 (24 h, isolate E107, 1 day in transit): 554 nM
- IC50 (24 h, isolate F107, 1 day in transit): 818 nM
- IC50 (24 h, isolate F166, 1 day in transit): 29.8 nM
- IC50 (24 h, isolate F296, 1 day in transit): 66.4 nM
- IC50 (24 h, isolate G17, 1 day in transit): 52 nM
- IC50 (24 h, isolate G236, 1 day in transit): 330 nM
- IC50 (24 h, isolate H107, 1 day in transit): 180 nM
- IC50 (24 h, isolate J107, 1 day in transit): 294 nM
- IC50 (24 h, isolate K107, 1 day in transit): 300 nM
- IC50 (24 h, isolate KilH, 1 day in transit): 248 nM
- IC50 (24 h, isolate KilS, 1 day in transit): 122 nM
- IC50 (24 h, isolate L107, 1 day in transit): 224 nM
- IC50 (24 h, isolate L137, 1 day in transit): 320 nM
- IC50 (48 h, isolate B106, 2 days in transit): 294 nM
- IC50 (48 h, isolate B116, 2 days in transit): 35.2 nM
- IC50 (48 h, isolate B296, 2 days in transit): 664 nM
- IC50 (48 h, isolate C108, 2 days in transit): 256 nM
- IC50 (48 h, isolate G296, 2 days in transit): 400 nM
- IC50 (48 h, isolate H236, 2 days in transit): 91.4 nM
- IC50 (48 h, isolate R107, 2 days in transit): 78.8 nM

Structure (SMILES): C=C[C@H]1C[N@@]2CC[C@H]1C[C@H]2[C@H](O)c1ccnc2ccc(OC)cc12 [Quinine, quinine]
- IC50 [1]: 40 nM
- IC50 [2]: 0.04 nM
- IC50 [3]: 152 nM
- IC50 [4]: 16.3 nM
- IC50 [5]: 476 nM
- IC50 [6]: 183 nM
- IC50 [7]: 136 nM
- IC50 [8]: 96.4 nM
- IC50 [9]: 165 nM
- IC50 [10]: 175 nM
- IC50 [11]: 264 nM
- IC50 [12]: 999 nM
- IC50 (24 h, isolate E67, 1 day in transit, read-out: IC50): 108 nM
- IC50 [13]: 230 nM
- IC50 [14]: 93.2 nM
- IC50 [15]: 99.2 nM
- IC50 [16]: 143 nM
- IC50 [17]: 304 nM
- IC50 [18]: 28 nM
- IC50 [19]: 55.4 nM
- IC50 [20]: 354 nM
- IC50 [21]: 378 nM
- IC50 [22]: 187 nM
- IC50 [23]: 58.8 nM
- IC50 [24]: 134 nM
- IC50 [25]: 136 nM
- IC50 [26]: 1.8 nM
- IC50 [27]: 160 nM
- IC50 [28]: 306 nM
- IC50 [29]: 208 nM
- IC50 [30]: 472 nM
